Type in all cases: functional, cell-based
Test [1] deals with T1, Multidrug resistance-associated protein 1 (Homo sapiens, UniProt P33527). Kind of test: TP_TRANSPORTER: inhibition of DNR transport in HL60/MRP cells.
In test [2] the target is T1, Multidrug resistance-associated protein 1. Kind of test: TP_TRANSPORTER: inhibition of VP-16 transport in HL60/ADR cells (overexpression of MRP1).
Test [3] has the same target. Kind of test: TP_TRANSPORTER: inhibition of DNR transport in HL60/ADR cells (overexpression of MRP1).
The target is the same in test [4]. Kind of test: TP_TRANSPORTER: inhibition of VCR transport in HL60/ADR cells (overexpression of MRP1).
For test [5] the target is unchanged. Kind of test: TP_TRANSPORTER: inhibition of VP-16 transport in HL60/MRP cells.
The target is the same in test [6]. Kind of test: TP_TRANSPORTER: inhibition of VCR transport in HL60/MRP cells.

Four compounds from ChEMBL document CHEMBL2073771, “Dibenzocyclooctadiene lignans: a class of novel inhibitors of multidrug resistance-associated protein 1” (Life Sci, 2006) can be followed below.

T1 sequence (P33527 whole entry): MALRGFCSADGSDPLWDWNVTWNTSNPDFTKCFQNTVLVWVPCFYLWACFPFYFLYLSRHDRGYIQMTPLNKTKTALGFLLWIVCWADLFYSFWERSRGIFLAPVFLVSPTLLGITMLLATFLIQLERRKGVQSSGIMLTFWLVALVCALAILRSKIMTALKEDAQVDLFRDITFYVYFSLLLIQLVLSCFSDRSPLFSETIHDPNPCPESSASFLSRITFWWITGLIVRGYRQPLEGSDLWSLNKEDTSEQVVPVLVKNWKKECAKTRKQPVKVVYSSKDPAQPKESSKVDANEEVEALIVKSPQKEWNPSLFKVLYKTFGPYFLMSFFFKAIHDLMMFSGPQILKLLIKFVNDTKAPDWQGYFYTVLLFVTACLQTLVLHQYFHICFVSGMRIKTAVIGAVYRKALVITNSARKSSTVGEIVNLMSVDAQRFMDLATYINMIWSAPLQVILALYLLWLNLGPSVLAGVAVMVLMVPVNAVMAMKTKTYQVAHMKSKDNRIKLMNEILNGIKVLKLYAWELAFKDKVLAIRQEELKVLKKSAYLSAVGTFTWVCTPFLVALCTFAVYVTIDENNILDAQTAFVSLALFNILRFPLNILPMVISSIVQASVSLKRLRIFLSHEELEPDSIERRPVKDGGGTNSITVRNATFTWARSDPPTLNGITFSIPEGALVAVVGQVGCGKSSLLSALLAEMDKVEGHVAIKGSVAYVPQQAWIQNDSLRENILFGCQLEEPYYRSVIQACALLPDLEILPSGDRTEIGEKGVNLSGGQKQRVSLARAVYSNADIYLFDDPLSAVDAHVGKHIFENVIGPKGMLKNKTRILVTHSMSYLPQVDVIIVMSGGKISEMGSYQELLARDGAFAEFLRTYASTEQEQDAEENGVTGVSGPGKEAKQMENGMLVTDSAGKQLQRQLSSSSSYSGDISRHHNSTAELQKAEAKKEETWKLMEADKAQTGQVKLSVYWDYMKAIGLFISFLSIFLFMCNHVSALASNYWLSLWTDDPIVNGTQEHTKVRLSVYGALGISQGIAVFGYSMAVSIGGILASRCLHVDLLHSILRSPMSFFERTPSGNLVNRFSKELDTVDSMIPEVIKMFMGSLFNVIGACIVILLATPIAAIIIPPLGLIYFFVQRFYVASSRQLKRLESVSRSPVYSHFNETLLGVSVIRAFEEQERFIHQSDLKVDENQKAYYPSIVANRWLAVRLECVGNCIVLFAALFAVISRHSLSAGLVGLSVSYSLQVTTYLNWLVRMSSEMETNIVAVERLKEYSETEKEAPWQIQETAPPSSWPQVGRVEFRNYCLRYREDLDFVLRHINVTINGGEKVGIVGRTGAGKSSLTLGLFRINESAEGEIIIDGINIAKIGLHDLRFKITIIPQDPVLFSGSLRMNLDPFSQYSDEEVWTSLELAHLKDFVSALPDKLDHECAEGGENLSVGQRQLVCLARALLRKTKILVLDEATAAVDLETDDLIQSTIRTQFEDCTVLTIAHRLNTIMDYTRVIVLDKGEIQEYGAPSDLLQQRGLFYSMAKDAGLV

As usually defined, the IC50 is the concentration needed to halve the response being measured. With `COc1cc2c(c(OC)c1OC)-c1c(cc(OC)c(OC)c1OC)C[C@](C)(O)[C@@H](C)C2` [SCHIZANDRIN], the IC50 was 217 nM in test [1]; 7250 nM in test [2]; 125 nM in test [3]; 1.16 nM in test [4]; 3240 nM in test [5]; 8.09 nM in test [6].
Turning to `COc1cc2c(c(OC)c1OC)-c1c(cc3c(c1OC)OCO3)C[C@H](C)[C@@](C)(O)C2` [GOMISIN A], the IC50 in test [1] was 182 nM; in test [2], 7770 nM; in test [3] it was 122 nM; in test [4] it was 0.96 nM; in test [5], 2760 nM; in test [6] it was 9.36 nM.
With `COc1cc2c(c(OC)c1OC)-c1c(cc3c(c1OC)OCO3)CC(C)C(C)C2` (centres undefined) [SCHISANDRIN B], the IC50 is 205 nM in test [1]; 4190 nM in test [2]; 140 nM in test [3]; 1.25 nM in test [4]; 2250 nM in test [5]; 9.49 nM in test [6].
With `COc1cc2c(c(OC)c1OC)-c1c(cc(OC)c(OC)c1OC)C[C@H](C)[C@H](C)C2` [SCHISANDRIN A], the IC50 in test [1] was 154 nM; in test [2], 4890 nM; in test [3], 142 nM; in test [4], 9.84 nM; in test [5] it was 2340 nM; in test [6], 6.96 nM.
